One compound from patent US11921116B2, “Enigma and CDH18 as companion diagnostics for CDK4 inhibitors” (Memorial Sloan Kettering Cancer Center, priority 2016, dated 2024) can be followed below.

What all share (format): cell-based
In test [1] the test system is MDM2 protein levels in LS8107 cells. The test is described as follows: MDM2 protein levels in LS8107 cells after CDK4 inhibition. The source says:
The short hairpins used are as follows: TRCN0000161061: […] (SEQ ID NO: 4); and TRCN0000166638 (“EN638”): […] (SEQ ID NO: 5).

Test [2] relates to MDM2 turnover in LS8107 cells. The test is described as follows: Turnover (degradation) of MDM2 in LS8107 cells after CDK4 inhibition. Particulars: LS8107 cells with knockdown of Enigma, addition of PD0332991. On the procedure: To determine if Enigma affects MDM2 protein levels post-translationally, the turnover of MDM2 was analyzed. […] To determine whether HAUSP and Enigma are the important regulators of MDM2 protein levels in response to treatment with a CDK4 inhibitor, concomitant knockdown of HAUSP and Enigma was performed.

The subject of test [3] is non-responder cell line LS8107. The test is described as follows: Senescence of LS8107 cells after CDK4 inhibition (SA-β-gal positive cells, ATRX foci).
[4] abbreviates: LS8107 cells with Enigma knocked down (shRNA), treated with PD0332991.
Setting [5] is: non-responder LS8107 cells, PD0332991 alone (no knockdown).

Entries after “also recorded” stand apart in the source; their conditions may differ.

In the case of `CC(=O)c1c(C)c2cnc(Nc3ccc(N4CCNCC4)cn3)nc2n(C2CCCC2)c1=O` [PD0332991], the MDM2 protein levels result is “reduction in MDM2 protein levels” in test [1] (setting [4]) and “do not reduce their MDM2 protein levels” in test [1] (setting [5]). In addition, the “turnover of MDM2” value in test [2] was “increased the turnover of MDM2”. The senescence entry in test [3] (setting [4]) is recorded as “the cells entered senescence”. For the same compound, the “senescence as determined by the number of SA-β-gal positive cells” value in test [3] (setting [5]) is on record as “do not undergo senescence; also recorded: insufficient to induce senescence”.
